# Measurements as given in PubChem BioAssay (NCI).
# Several values for one entry are separate records, joined by “and”; a condition that tells them apart may be missing. Equal entries are not always repeated.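 Method: 48-hour compound exposure of cells in 96-well plates, five concentrations, linear interpolation of endpoints. GI50 = concentration required for 50% inhibition of growth. TGI: concentration producing complete growth inhibition.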
# Key:
# Assay in all cases: DTP human tumour cell line panel, 48 h
# NCI-H460 lung = system: NCI-H460 lung
# UACC-257 melanoma = system: UACC-257 melanoma
# CCRF-CEM leukemia = system: CCRF-CEM leukemia
# K-562 leukemia = system: K-562 leukemia
# KM12 colon = system: KM12 colon
# NCI-H522 lung = system: NCI-H522 lung
# RPMI-8226 leukemia = system: RPMI-8226 leukemia
# HT29 colon = system: HT29 colon
# HOP-92 NSCLC = system: HOP-92 NSCLC
# DU-145 prostate = system: DU-145 prostate
SMILES,GI50 (NCI-H460 lung),TGI (NCI-H460 lung),GI50 (UACC-257 melanoma),TGI (UACC-257 melanoma),GI50 (CCRF-CEM leukemia),TGI (CCRF-CEM leukemia),GI50 (K-562 leukemia),TGI (K-562 leukemia),GI50 (KM12 colon),TGI (KM12 colon),GI50 (NCI-H522 lung),TGI (NCI-H522 lung),GI50 (RPMI-8226 leukemia),TGI (RPMI-8226 leukemia),GI50 (HT29 colon),TGI (HT29 colon),GI50 (HOP-92 NSCLC),TGI (HOP-92 NSCLC),GI50 (DU-145 prostate),TGI (DU-145 prostate)
O=C(/C=C/c1cc(CN2CCOCC2)c(O)c2ncccc12)c1cc(CN2CCOCC2)c(O)c2ncccc12,< 0.0169 µM,> 55.9 µM,0.202 µM,8.88 µM,0.05 µM,> 100 µM,< 0.0114 µM,> 100 µM,0.0437 µM,> 100 µM,0.0208 µM,> 53.7 µM,0.0222 µM,> 100 µM,0.0695 µM,> 100 µM,0.0292 µM,0.525 µM,< 0.0219 µM,> 100 µM
[Au+].[Au+].[Au+].[c-]1nccn1Cc1ccccc1.[c-]1nccn1Cc1ccccc1.[c-]1nccn1Cc1ccccc1,11.6 µM,54.5 µM,3.71 µM,7.5 µM,3.71 µM,> 25.5 µM,3.82 µM,25 µM,7.75 µM,39.9 µM,1.58 µM,2.95 µM,3.9 µM,> 100 µM,16.9 µM,> 77.4 µM,2.34 µM,4.25 µM,17.7 µM,32.4 µM
CC(C)CNC(=O)O,,> 100 µM,,> 100 µM,,> 100 µM,,> 100 µM,,> 100 µM,,> 100 µM,,> 100 µM,,> 100 µM,,> 100 µM,,> 100 µM
COc1ccc(Nc2c3ccccc3nc3occ(Cl)c23)cc1,< 0.01 µM,8.18 µM,0.0159 µM,13.3 µM,0.0199 µM,0.416 µM,< 0.01 µM,> 35.1 µM,< 0.01 µM,4.1 µM,< 0.0119 µM,6.92 µM,0.0145 µM,0.571 µM,< 0.0145 µM,> 34.8 µM,0.0165 µM,7.17 µM,0.0874 µM,22 µM
C=C1C(=O)O[C@H]2[C@H]1CC/C(COC(=O)c1ccc(Cl)nc1)=C\CC[C@@]1(C)O[C@@H]21,5.19 µM,21.4 µM,1.83 µM,4.17 µM,1.22 µM,6.9 µM,2.19 µM,12.2 µM,3.96 µM,16.7 µM,1.59 µM,3.82 µM,1.58 µM,4.87 µM,1.66 µM,4.11 µM,2.18 µM,4.84 µM,1.75 µM,4.01 µM
CCC(C)(C)c1ccc(OCCCCCCN2CCNCC2)cc1,1.94 µM,3.87 µM,2.11 µM,4.43 µM,1.43 µM,4.64 µM,1.7 µM,3.93 µM,1.88 µM,3.5 µM,2.23 µM,5.67 µM,1.9 µM,4.41 µM,1.86 µM,4.72 µM,1.21 µM,6.82 µM,2.39 µM,6.06 µM
Nc1nc(SN=Nc2ccc(S(N)(=O)=O)cc2)c2[nH]cnc2n1,0.384 µM,13 µM,1.62 µM,> 100 µM,0.268 µM,> 100 µM,0.299 µM,> 100 µM,1.64 µM,20 µM,1.08 µM,43.1 µM,0.283 µM,3.33 µM,0.79 µM,> 100 µM,0.429 µM,22.4 µM,0.469 µM,> 94.8 µM
CC(C)OC(=O)NNc1cc(Cl)ccc1Cl,,> 100 µM,,> 100 µM,,> 100 µM,,> 100 µM,,> 100 µM,,> 100 µM,,> 100 µM,,> 100 µM,,> 100 µM,,> 100 µM
COc1cc2c(c(OC)n1)[C@]1(O)[C@H](O)[C@H](CN(C)C)[C@@H](c3ccccc3)[C@]1(c1ccc(C#N)cc1)O2,< 0.01 µM,3.48 µM and 6.88 µM,0.0417 µM and 0.0427 µM,2.45 µM and 2.12 µM,< 0.01 µM,> 52.7 µM and 13.6 µM,< 0.01 µM,,0.0128 µM and < 0.01 µM,3.61 µM and 7.59 µM,0.0257 µM and 0.0212 µM,1.15 µM and 2.24 µM,0.0151 µM and < 0.01 µM,0.299 µM and 0.15 µM,< 0.01 µM,4.25 µM and 4.04 µM,0.0521 µM and 0.0346 µM,4.3 µM and 0.991 µM,0.0191 µM and < 0.0136 µM,3.45 µM and 3.69 µM
